Some test systems named below: KM12; MDA-MB-435; RPMI-8226; MOLT-4; OVCAR-5; OVCAR-3; HT-29; UO-31; SF-539; NCI-H522; MDA-N; SNB-19; T47D; HCC 2998; MDA-MB-231; SF-268; SN12C; SK-MEL-28; CCRF-CEM; HCT-15.
Assay in all cases: NCI-60 cell line screen, 48 h

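Briefly, cells in 96-well plates were exposed to five compound concentrations for 48 h, and endpoints were estimated by linear interpolation. Here, GI50 denotes the concentration required for 50% inhibition of growth.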 Calls of active or inactive are those of the source. No stated cut-off is given here; in the data, active = GI50 up to about 1.1 µM and inactive = higher.

Regarding `C=C1C(=O)OC2/C=C(\C)C3OC3/C=C(/C(=O)OC)C(OC(C)=O)C(OC(=O)C(C)(O)C(C)OC(C)=O)C12` (stereo not given), the GI50 was 2.49 µM (inactive) in the assay on KM12; 2.03 µM (inactive) in the assay with MDA-MB-435; 0.92 µM (active) in the assay on RPMI-8226; 0.647 µM (active) with MOLT-4; 5.58 µM (inactive) in the assay with OVCAR-5; 3.13 µM (inactive) in the assay with OVCAR-3. Besides, the GI50 was 1.29 µM (inactive) with HT-29; 6.52 µM (inactive) in the assay on UO-31; 2.11 µM (inactive) with SF-539; 0.284 µM (active) with NCI-H522; 2.69 µM (inactive) in the assay with MDA-N; 14.5 µM (inactive) in the assay on SNB-19. In addition, the GI50 in the assay on T47D is 6.3 µM (inactive); in the assay on HCC 2998 it was 3.83 µM (inactive); in the assay with MDA-MB-231 it was 8.93 µM (inactive); with SF-268, 5.55 µM (inactive); in the assay with SN12C, 2.67 µM (inactive); with SK-MEL-28, 2.23 µM (inactive). The GI50 in the assay with CCRF-CEM is 0.305 µM (active); in the assay on HCT-15 it was 6.24 µM.

Consider `CCCCCC(O)(CCCCC)CCCCCCCCC1=C(O)C(=O)c2ccccc2C1=O`, for which the GI50 is 5.62 µM (inactive) in the assay on KM12; 8.53 µM (inactive) in the assay with MDA-MB-435; 3.38 µM (inactive) in the assay with RPMI-8226; 3.33 µM (inactive) in the assay on MOLT-4; 20.5 µM (inactive) in the assay with OVCAR-5; 14.3 µM (inactive) in the assay on OVCAR-3. Moreover, the GI50 was 14.1 µM (inactive) with HT-29; 10.3 µM (inactive) with UO-31; 11.2 µM (inactive) with SF-539; 12.2 µM (inactive) with NCI-H522; 10.5 µM (inactive) with MDA-N; 5.75 µM (inactive) with SNB-19. Moreover, the GI50 with T47D was 26.4 µM (inactive); in the assay with HCC 2998, 16.6 µM (inactive); with MDA-MB-231 it was 11.4 µM (inactive); with SF-268, 6.95 µM (inactive); with SN12C, 9.04 µM (inactive); in the assay with SK-MEL-28 it was 11.7 µM (inactive). Moreover, the GI50 was 6.12 µM (inactive) with CCRF-CEM and 4.18 µM in the assay on HCT-15.

Take `CSc1c([S+](C)[O-])c2ccccc2n1C` (stereo not given): the GI50 in the assay with KM12, in the assay on MDA-MB-435, in the assay with RPMI-8226, in the assay on MOLT-4, in the assay on OVCAR-5 and in the assay on OVCAR-3 was > 100 µM (inactive) each time. For the same compound, the GI50 in the assay with HT-29 is > 100 µM (inactive); in the assay on UO-31, > 100 µM (inactive); in the assay with SF-539, > 100 µM (inactive); in the assay with NCI-H522, 0.0142 µM (active); with MDA-N, > 100 µM (inactive); in the assay on SNB-19, > 100 µM (inactive). For the same compound, the GI50 in the assay with T47D, in the assay with HCC 2998, in the assay on MDA-MB-231, with SF-268, in the assay on SN12C and in the assay with SK-MEL-28 was > 100 µM (inactive) each time. Also, the values for the GI50 in the assay with CCRF-CEM and with HCT-15 were > 100 µM (inactive) and more than 100 µM, respectively.

On to `Cc1ccnc2[nH]c(-c3ccccc3)cc(=O)c12`, for which the GI50 was 0.00705 µM (active) in the assay on KM12; 0.1 µM (active) in the assay with MDA-MB-435; 0.00731 µM (active) with RPMI-8226; 0.0132 µM (active) in the assay on MOLT-4; 0.643 µM (active) in the assay with OVCAR-5; 0.00583 µM (active) in the assay with OVCAR-3. Moreover, the GI50 was 0.00361 µM (active) in the assay on HT-29; 0.0348 µM (active) in the assay on UO-31; 0.0191 µM (active) with SF-539; 0.00838 µM (active) in the assay on NCI-H522; 0.0011 µM (active) in the assay with MDA-N; 0.0233 µM (active) in the assay on SNB-19. For the same compound, the GI50 was 42.5 µM (inactive) in the assay with T47D; 0.037 µM (active) with HCC 2998; 0.0912 µM (active) with MDA-MB-231; 0.0341 µM (active) with SF-268; 0.0277 µM (active) in the assay with SN12C; 0.01 µM (active) in the assay on SK-MEL-28. Moreover, the GI50 is 0.00589 µM (active) in the assay with CCRF-CEM and 0.00485 µM in the assay with HCT-15.

Turning to `CNC(=O)CCCNC(=O)CCCC(=O)OC`, the GI50 in the assay with KM12, with MDA-MB-435, in the assay on RPMI-8226, with MOLT-4, in the assay on OVCAR-5 and in the assay with OVCAR-3 was > 100 µM (inactive) in each case. Besides, the GI50 in the assay with HT-29, with UO-31, with SF-539, in the assay on NCI-H522, with MDA-N and with SNB-19 was > 100 µM (inactive) throughout. Moreover, the GI50 with T47D, in the assay with HCC 2998, in the assay on MDA-MB-231, with SF-268, with SN12C and with SK-MEL-28 was > 100 µM (inactive) throughout. The results for the GI50 with CCRF-CEM and with HCT-15 were > 100 µM (inactive) and more than 100 µM, respectively.

On to `Clc1ccc(-c2cc(-c3nc4ccccc4[nH]3)no2)cc1`, for which the GI50 was 20.8 µM (inactive) in the assay on KM12; 17 µM (inactive) in the assay on MDA-MB-435; 24.3 µM (inactive) with RPMI-8226; 16.1 µM (inactive) with MOLT-4; 18.7 µM (inactive) in the assay with OVCAR-5; 18.5 µM (inactive) in the assay on OVCAR-3. For the same compound, the GI50 in the assay with HT-29 is 18.2 µM (inactive); with UO-31, 19 µM (inactive); in the assay on SF-539, 23.9 µM (inactive); with NCI-H522, 19.2 µM (inactive); in the assay with MDA-N, 17.5 µM (inactive); in the assay with SNB-19, 19.6 µM (inactive). Moreover, the GI50 was 11.7 µM (inactive) with T47D; 18.6 µM (inactive) in the assay with HCC 2998; 18.6 µM (inactive) in the assay with MDA-MB-231; 21.3 µM (inactive) in the assay with SF-268; 18.6 µM (inactive) in the assay on SN12C; 19.3 µM (inactive) in the assay with SK-MEL-28. Moreover, the values for the GI50 in the assay with CCRF-CEM and in the assay on HCT-15 were 18.7 µM (inactive) and 19.6 µM, respectively.

In the case of `O=NN(Cc1ccc(Cl)cc1)C(C(=O)O)c1ccccc1` (stereo not given), the GI50 in the assay on KM12, in the assay with MDA-MB-435, with RPMI-8226, with MOLT-4, with OVCAR-5 and with OVCAR-3 was > 100 µM (inactive) in each case. The GI50 in the assay on HT-29, in the assay with UO-31, with SF-539, in the assay on NCI-H522, in the assay on MDA-N and in the assay with SNB-19 was > 100 µM (inactive) in each case. Further, the GI50 with T47D is > 100 µM (inactive); in the assay with HCC 2998, 43.9 µM (inactive); with MDA-MB-231 it was > 100 µM (inactive); in the assay on SF-268 it was > 100 µM (inactive); in the assay on SN12C it was > 100 µM (inactive); in the assay with SK-MEL-28, > 100 µM (inactive). The GI50 in the assay on CCRF-CEM is > 100 µM (inactive); with HCT-15 it was more than 100 µM.

Turning to `CCOC(=O)C(=CNc1ccc(NC2=NCC(C)S2)cc1)C(=O)OCC` (stereo not given), the GI50 in the assay on KM12 was 16.6 µM (inactive); in the assay on MDA-MB-435, 20.2 µM (inactive); with RPMI-8226, 9.48 µM (inactive); with MOLT-4, 3.15 µM (inactive); in the assay on OVCAR-5 it was > 100 µM (inactive); in the assay with OVCAR-3, 18.2 µM (inactive). Besides, the GI50 was 23.6 µM (inactive) in the assay with HT-29; 17.8 µM (inactive) in the assay with UO-31; 47.8 µM (inactive) in the assay with SF-539; 2.66 µM (inactive) with NCI-H522; 25.7 µM (inactive) in the assay with MDA-N; 37.8 µM (inactive) with SNB-19. The GI50 was 24.8 µM (inactive) with T47D; 33.4 µM (inactive) in the assay with HCC 2998; 34.3 µM (inactive) in the assay on MDA-MB-231; 33.1 µM (inactive) in the assay on SF-268; 41 µM (inactive) with SN12C; 20.8 µM (inactive) in the assay with SK-MEL-28. The GI50 in the assay with CCRF-CEM is 0.0908 µM (active); with HCT-15, 15.2 µM.

Consider `COc1cc(C(=O)O)ccc1OS(=O)(=O)O`, for which the GI50 in the assay with KM12, with MDA-MB-435, in the assay on RPMI-8226, in the assay with MOLT-4, in the assay with OVCAR-5 and with OVCAR-3 was > 100 µM (inactive) throughout. In addition, the GI50 in the assay on HT-29, in the assay with UO-31, in the assay with SF-539, with NCI-H522, in the assay with MDA-N and in the assay on SNB-19 was > 100 µM (inactive) throughout. Moreover, the GI50 in the assay on T47D, in the assay with HCC 2998, in the assay with MDA-MB-231, in the assay with SF-268, with SN12C and in the assay on SK-MEL-28 was > 100 µM (inactive) in each case. For the same compound, the GI50 with CCRF-CEM is > 100 µM (inactive); in the assay with HCT-15, more than 100 µM.

Turning to `CC(=O)[C@]1(O)Cc2c(O)c3c(c(O)c2C(OC2OC(C)C(O)C(O)C2F)C1)C(=O)c1ccccc1C3=O` (stereo not given in full), the GI50 with KM12 was 0.158 µM (active); with MDA-MB-435, 0.371 µM (active); in the assay on RPMI-8226, < 0.0299 µM (active); in the assay on MOLT-4, < 0.01 µM (active); with OVCAR-5, 0.125 µM (active); in the assay with OVCAR-3, 0.568 µM (active). In addition, the GI50 is 0.109 µM (active) in the assay on HT-29; < 0.01 µM (active) in the assay on UO-31; < 0.0402 µM (active) in the assay on SF-539; 0.316 µM (active) with NCI-H522; 0.475 µM (active) in the assay on MDA-N; < 0.0199 µM (active) with SNB-19. Also, the GI50 with T47D was 0.0395 µM (active); in the assay with HCC 2998, 0.208 µM (active); in the assay on MDA-MB-231, 0.115 µM (active); in the assay on SF-268, 0.084 µM (active); in the assay on SN12C, 0.0247 µM (active); in the assay on SK-MEL-28, 0.547 µM (active). The GI50 in the assay with CCRF-CEM was < 0.0141 µM (active); in the assay with HCT-15, 0.0516 µM.

For the origin of these results see ChEMBL document CHEMBL1201862, “PubChem BioAssay data set” (2004).
